Square brackets hold non-standard residues; d marks the D form. Ends that are not written are not given here. Peptide text beside a SMILES is read from it.
Experiments:
[1] = Solubility / visual appearance in water, PBS or urea-PBS; type: physicochemical
Text: To attach the peptides to PEG, we selected a thiol-maleimide reaction[43,44] due to its efficiency under mild conditions (Fig. 1a). Therefore, we prepared cysteine-terminated L- and […], or […] and […]8 ^†), for conjugation to maleimide-functionalized 4-arm PEG. […] We note that […] peptides are only partially soluble and form a white dispersion in the 7 M urea 1× PBS solution (Fig. S10 ^†). […] In 1× PBS, while 1.5% (w/v) unconjugated KYFIL forms β-sheets, the conjugates are soluble and we see no evidence of β-sheet formation by infrared (IR) spectroscopy even at 15% ([…] ^†), corresponding to a peptide equivalent concentration of ∼2% (w/v), which exceeds the peptide concentrations in the 1.5% (w/v) formulations of peptide alone. As noted in our previous report on unconjugated KYFIL,[20] we used IR here for secondary structure determination rather than CD because the high peptide concentrations and the presence of salt that promote β-sheet formation also complicate CD spectra acquisition by saturating the detector. […] Moreover, the absorbances are more prominent at higher concentrations (Fig. 2b), signifying the relationship between secondary structure and hydrogel formation.

Proteinase K = target: T1, Proteinase K (Parengyodontium album, UniProt P06873); conditions: unconjugated KYFIL peptides; cited from earlier work
T1 construct: purchased Sigma-Aldrich
T1 sequence (P06873 106-384): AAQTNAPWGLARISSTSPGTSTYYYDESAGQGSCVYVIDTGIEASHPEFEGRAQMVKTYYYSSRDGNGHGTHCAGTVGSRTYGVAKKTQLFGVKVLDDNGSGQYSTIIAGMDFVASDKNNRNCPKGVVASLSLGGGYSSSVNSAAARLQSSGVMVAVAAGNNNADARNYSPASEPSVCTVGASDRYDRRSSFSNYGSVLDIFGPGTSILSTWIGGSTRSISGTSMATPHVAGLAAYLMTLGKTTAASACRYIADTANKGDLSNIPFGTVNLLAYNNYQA
Procedure: Given the potential of peptide stereocomplexes to prolong hydrogel lifetime due to enhanced proteolytic stability, we were interested to learn whether the KYFIL stereocomplex cross-links boost the proteolytic stability of polymeric hydrogels. In our prior study with unconjugated KYFIL stereocomplexes, we incubated l-, 1 : 1 L : D-, and D-KYFIL in Proteinase K, an enzyme that is predicted to cleave L-KYFIL between the Y–F, F–I, and I–L residues.[57] We found more than 90% intact peptide in the 1 : 1 L : D-peptide mixtures after incubation with Proteinase K for 72 h, while only ∼35% L-KYFIL rema ...

solubility in water (in words) [1] | Molecule | intact peptide after incubation with Proteinase K for 72 h (Proteinase K) [%]
soluble | CC[C@@H](C)[C@@H](NC(=O)[C@@H](Cc1ccccc1)NC(=O)[C@@H](Cc1ccc(O)cc1)NC(=O)[C@H](N)CCCCN)C(=O)N[C@H](CC(C)C)C(=O)N[C@H](CS)C(N)=O [D-KYFILC] (H-[dK][dY][dF][dI][dL][dC]-NH2) | –
soluble | KYFILC-NH2 [L-KYFILC] | –
– | L-KYFIL [unconjugated L-peptide KYFIL of the authors' prior study] | ~35

Reference: PMC12129089, “Peptide stereocomplex cross-links for polymer hydrogels” (Chemical Science, 2025)
